Common to all, as to type: cell-based, human
Test [1] concerns PBMC derived from naïve donors. The test can be described thus: Cytokine secretion (quantitative ELISA) by PBMC from naïve donors. Conditions: for donors with positive (x>0.1 ng/ml) IL-4 secretion / donors with positive (x>0.1 ng/ml) IL-12 secretion / donors with positive (x>0.1 ng/ml) IL-2 secretion: 48 hrs stimulation, FIG. 7A. For orientation: An ELISA detects its analyte on a solid surface through an enzyme-linked reagent.

The test system of test [2] is naïve peripheral blood mononuclear cells (PBMC). Put plainly: Proliferation ([3H] Thymidine) of PBMC from naïve donors stimulated with VXL tuberculosis vaccine candidates. Particulars: for proliferation in donors which also manifested response to PPD: PPD positive (SI≥2) naïve PBMC, FIG. 3B; for proliferation in donors which also manifested response to PPD / positive proliferation in donors which also manifested response to TT / SI and coverage in the total 11 donors / proliferation in PPD positive versus PPD negative donors: in words; for positive proliferation in donors which also manifested response to TT: TT positive (SI≥2) naïve PBMC, FIG. 3A; for SI and coverage in the total 11 donors: in comparison with the positive controls; for proliferation in PPD positive versus PPD negative donors: naïve PBMC, FIG. 4.

The subject of test [3] is autologous macrophages loaded with VXL VCs. The test can be described thus: Cytotoxic activity of VXL-induced T cell lines against loaded autologous macrophages (35S Methionine). Particulars: T cell line induced by the peptide; in words.
The subject of test [4] is autologous macrophages infected with live Mtb. Conditions: peptide-induced T cell lines from naïve donors and TB patients, FIG. 12; in words.
Test [5] concerns anti-VXL effector T-cell lines. Put plainly: IFN-gamma released by effector T cell lines during the lysis process (ELISA).
The subject of test [6] is anti-VXL VCs T cell lines from naïve donors. Put plainly: FACS phenotype of anti-VXL T cell lines (CD44high, CD62Lhigh). Conditions: FIG. 14; for CD44high activated effector cells in CD8+ / CD62Lhigh memory cells in CD8+: after the 3rd stimulation; for CD62Lhigh memory cells in CD4+ / CD44high activated effector cells in CD4+: already after the 1st stimulation.
Test [7] concerns anti-VXL T cell lines after the 3rd stimulation. The test can be described thus: Intra-cellular staining (ICS) FACS for IFN-gamma and IL-4 in T cell lines. Conditions: 6 h stimulation with peptide-loaded autologous macrophages, FIG. 15.
Setting [8] is: donor #15 (FIG. 12B), naïve donor T cell line.
Setting [9] is: patient #18 (FIG. 12D), Mtb patient T cell line.

The results in this text go back to patent US10350284B1, “Antigen specific multi epitope-based anti-infective vaccines” (priority 2009, dated 2019).

Values joined by “and” are separate entries in the source; they are usually repeats but may differ in a detail not shown here. Equal values may be shown once. Read-outs that look alike come from different tables or passages of the source.

In the case of “MAAMWRRRPLSSALLSFGLLLGGLPLAAPPLAGA (listed as Mycobacterium tuberculosis) [VXL207, signal peptide of Protease, Tuberculosis]”, in test [1], the “donors with positive (x>0.1 ng/ml) IL-4 secretion” value turned out to be 25% and the “donors with positive (x>0.1 ng/ml) IL-12 secretion” value was determined as 8.6%.

Turning to MKIRLHTLLAVLTAAPLLLAAAGCGS [VXL200], in test [2], the “proliferation in donors which also manifested response to PPD” value (“proliferation … to PPD” below) is listed as “stronger” and the “positive proliferation in donors which also manifested response to TT” value (“positive proliferation” below) is “to some extent”. For the same sequence, the “donors with positive (x>0.1 ng/ml) IL-2 secretion” value in test [1] was determined as 25%.

MKRGLTVAVAGAAILVAGLSGCSS [VXL203]: in test [2], the “average SI” value was 1.8+/−0.8; the “positive proliferation” value is listed as “to some extent”; the “SI and coverage in the total 11 donors” value is reported as “to some extent”; the “proliferation in PPD positive versus PPD negative donors” value is “more potent in donors which were not exposed in the past to the tuberculosis Bactria”. In test [2] (pure (>90%) peptide, naïve donors, FIG. 9A), the “average SI” value is 5.7+/−6.8. Besides, the “donors with positive (x>0.1 ng/ml) IL-12 secretion” value in test [1] is listed as 8.6%. Besides, the “lysis against PPD-loaded targets” value in test [3] is listed as “specific lysis”. The “lysis of Mtb infected macrophages” value in test [4] was “high and specific lysis”. In addition, the IFN-gamma detected in test [5] (setting [8]) amounted to 3.8 µg/mL. The IFN-gamma detected in test [5] (setting [9]) amounted to 11 µg/mL. Moreover, in test [6], the “CD44high activated effector cells in CD8+” value amounted to 79%, the “CD62Lhigh memory cells in CD8+” value was 17% and the “CD62Lhigh memory cells in CD4+” value is reported as 39%. For the same sequence, in test [7], the “maximal percentage of specific IFN-gamma produced by CD8+ T-cells” value came to 8.2%.

On to “MKTGTATTRRRLLAVLIALALPGAAVA (listed as Mycobacterium tuberculosis) [VXL206, signal peptide of Hypothetical protein MT0 213, Tuberculosis]”, for which the “donors with positive (x>0.1 ng/ml) IL-12 secretion” value in test [1] is listed as 8.6%.

On to “MLLRKGTVYVLVIRADLVNAMVAHA (listed as Mycobacterium tuberculosis) [VXL212, signal peptide of Uncharacterized protein Rv1334/MT1376 precursor, Tuberculosis]”, for which, in test [2], the “proliferation … to PPD” value is given as “stronger”; the “positive proliferation” value was “more positive”; the “SI and coverage in the total 11 donors” value is “highest SI and widest coverage”; the “proliferation in PPD positive versus PPD negative donors” value was “even stronger in donors with previous exposure to the tuberculosis Bactria”. In addition, the “donors with positive (x>0.1 ng/ml) IL-12 secretion” value in test [1] is on record as 58.3%. Also, in test [4], the “lysis of Mtb infected macrophages” value is “lower lysis levels”. Moreover, in test [5], the IFN-gamma detected was 5.6 µg/mL and 3.6 µg/mL. For the same sequence, the IFN-gamma detected in test [5] (setting [9]) is 7.5 µg/mL.

With “MLVLLVAVLVTAVYAFVHA (listed as Mycobacterium tuberculosis) [VXL211, signal peptide of Uncharacterized protein Rv0476/MT04941 precursor, Tuberculosis]”, in test [2], the “proliferation … to PPD” value is given as “stronger”; the “positive proliferation” value is “more positive”; the “SI and coverage in the total 11 donors” value is “highest SI and widest coverage”; the “proliferation in PPD positive versus PPD negative donors” value is “even stronger in donors with previous exposure to the tuberculosis Bactria”. Further, in test [1], the “donors with positive (x>0.1 ng/ml) IL-2 secretion” value turned out to be 91.6% and the “donors with positive (x>0.1 ng/ml) IL-12 secretion” value is on record as 58.3%. The “lysis against PPD-loaded targets” value in test [3] is on record as “specific lysis”. In test [4], the “lysis of Mtb infected macrophages” value is reported as “moderate lysis”. For the same sequence, the IFN-gamma detected in test [5] was 9.2 µg/mL and 7.8 µg/mL. The IFN-gamma detected in test [5] (setting [8]) is 5.9 µg/mL. Further, in test [6], the “CD44high activated effector cells in CD8+” value was determined as 80%, the “CD62Lhigh memory cells in CD8+” value worked out at 40.9% and the “CD44high activated effector cells in CD4+” value turned out to be 41%. Besides, the “maximal percentage of specific IFN-gamma produced by CD8+ T-cells” value in test [7] amounted to 10.6%.

With “MRFAQPSALSRFSALTRDWFTSTFAAPTAAQA (listed as Mycobacterium tuberculosis) [VXL208, signal peptide of ATP dependent helicase putative, Tuberculosis]”, in test [2], the “proliferation … to PPD” value is “stronger”; the “positive proliferation” value is reported as “more positive”; the “SI and coverage in the total 11 donors” value is “highest SI and widest coverage”; the “proliferation in PPD positive versus PPD negative donors” value was “even stronger in donors with previous exposure to the tuberculosis Bactria”. In test [1], the “donors with positive (x>0.1 ng/ml) IL-4 secretion” value is recorded as 25%. In addition, the IL-4 secretion result in test [1] (in words) is reported as “some secretion of IL-4”. In addition, in test [4], the “lysis of Mtb infected macrophages” value is “lower lysis levels”. In addition, in test [5], the IFN-gamma detected was found to be 2.6 µg/mL. The IFN-gamma detected in test [5] (setting [8]) worked out at 3.6 µg/mL. For the same sequence, in test [6], the “CD44high activated effector cells in CD8+” value worked out at 50.2%, the “CD62Lhigh memory cells in CD8+” value turned out to be 32.1%, the “CD44high activated effector cells in CD4+” value was 52% and the “CD62Lhigh memory cells in CD4+” value was 22%.

Consider “MRPSRYAPLLCAMVLALAWLSAVAG (listed as Mycobacterium tuberculosis) [VXL214, signal peptide of Putative lipoprotein IpqV precursor, Tuberculosis]”, for which the “positive proliferation” value in test [2] is “to some extent”.

Consider “MTDVSRKIRAWGRRLMIGTAAAVVLPGLVGLAGGAATAGA (listed as Mycobacterium tuberculosis) [VXL201, signal peptide of Antigen 85B, Tuberculosis]”, for which, in test [2], the “proliferation … to PPD” value was “stronger”; the “positive proliferation” value is “more positive”; the “SI and coverage in the total 11 donors” value was “highest SI and widest coverage”; the “proliferation in PPD positive versus PPD negative donors” value was “even stronger in donors with previous exposure to the tuberculosis Bactria”. The “lysis of Mtb infected macrophages” value in test [4] is “high and specific lysis”. In addition, the IFN-gamma detected in test [5] was 6 µg/mL and 10 µg/mL and 11.3 µg/mL. Besides, the IFN-gamma detected in test [5] (setting [9]) turned out to be 14 µg/mL.
